Values of other authors in article PMC11859340, “The Therapeutic Potential of Spirooxindoles in Cancer: A Focus on p53–MDM2 Modulation” (Pharmaceuticals, 2025).
Read-outs that look alike come from different tables or passages of the source. One block for each molecule: values may come before it.

Experiments:
HeLa (cervical) [1] = tested on: HeLa (cervical); set-up: method as in PMID 37935912; settings: SRB; read-out: IC50 against HeLa
A549 (lung) [2] = tested on: A549 (lung); set-up: method as in doi:10.1080/10426507.2020.1723590; settings: MTT; read-out: IC50 against A549
[3] = tested on: HEK293T (embryonic kidney); set-up: method as in doi:10.1080/10426507.2020.1723590; settings: MTT; read-out: IC50 against HEK293T
p53 = tested on: p53; set-up: method as in doi:10.1080/10426507.2020.1723590; settings: for p53 receptor activation: A549, at 100 μM; for p53 reporter activation: A549, 1.56 to 100 μM compound concentrations
MCF7 “wild p53” = tested on: MCF7 “wild p53”; set-up: method as in PMID 37731691; settings: MTT; read-out: IC50 against MCF7
MDA-MB-231 “mutant p53” = tested on: MDA-MB-231 “mutant p53”; set-up: method as in PMID 37731691; settings: MTT; read-out: IC50 against MDA-MB-231
A549 (lung) [4] = tested on: A549 (lung); set-up: method as in PMID 29302672; settings: at 10 μM, CCK-8
MCF7 (breast) [5] = tested on: MCF7 (breast); set-up: method as in PMID 29302672; settings: at 10 μM, CCK-8
HCT116 (colon) = tested on: HCT116 (colon); set-up: method as in PMID 29302672; settings: at 10 μM, CCK-8
p53–MDM2 = tested on: p53–MDM2; set-up: method as in PMID 30458062
[6] = tested on: SJSA-1 (osteosarcoma cancer cell line with wild p53); set-up: method as in PMID 30458062; settings: read-out: IC50 against SJSA-1
[7] = tested on: SK-OV-3 (ovarian cancer cell line with mutant p53); set-up: method as in PMID 30458062; settings: read-out: IC50 against SK-OV-3
MDA-MB-231 (breast) = tested on: MDA-MB-231 (breast); set-up: method as in PMID 36174446; settings: MTT; read-out: IC50 against MDA-MB-231
PC3 (prostate) [8] = tested on: PC3 (prostate); set-up: method as in PMID 36174446; settings: MTT; read-out: IC50 against PC3
HCT-116 (colon) = tested on: HCT-116 (colon); set-up: method as in PMID 36174446; settings: MTT; read-out: IC50 against HCT-116
A549 (lung) [9] = tested on: A549 (lung); set-up: method as in PMID 36174446; settings: MTT; read-out: IC50 against A549
MCF7 (breast) [10] = tested on: MCF7 (breast); set-up: method as in doi:10.31788/RJC.2023.1638506; settings: MTT; read-out: IC50 against MCF7
HeLa (cervical) [11] = tested on: HeLa (cervical); set-up: method as in doi:10.31788/RJC.2023.1638506; settings: MTT; read-out: IC50 against HeLa
PC3 (prostate) [12] = tested on: PC3 (prostate); set-up: method as in PMID 34684885; settings: MTT; read-out: IC50 against PC3
PC-3 (p53−) = tested on: PC-3 (p53−); set-up: method as in PMID 30735387; settings: MTT; read-out: IC50 against PC-3 (p53−)
HCT116 (p53^−/−) [13] = tested on: HCT116 (p53^−/−); set-up: method as in PMID 28987608; settings: MTT; read-out: IC50 against HCT116 (p53^−/−)
HCT116 (p53^−/−) [14] = tested on: HCT116 (p53^−/−); set-up: method as in doi:10.1039/C5MD00450K; settings: read-out: GI50 against HCT116 (p53^−/−)

Structure (SMILES): O=C1c2ccccc2OC12C(c1ccc(Cl)cc1)C1CCCCN1C21C(=O)Nc2ccccc21 (centres unmarked) [77 (R = H)]
IC50 (HeLa (cervical) [1]): 2.5 ± 0.3 µM

Structure (SMILES): CN1C[C@H](c2ccccc2Cl)[C@]2(NC(=S)N(CC34CC5CC(CC(C5)C3)C4)C2=O)[C@]12C(=O)Nc1ccc(Br)cc12 [89 (R = Br, R’ = 2-ClC6H4)]
IC50 (A549 (lung) [2]): 7.2 ± 1.85 µM
IC50 [3]: 7.63 ± 0.75 µM

Structure (SMILES): CN1C[C@H](c2ccc(Cl)cc2)[C@]2(NC(=S)N(CC34CC5CC(CC(C5)C3)C4)C2=O)[C@]12C(=O)Nc1ccc(Br)cc12 [89 (R = Br, R’ = 4-ClC6H4)]
p53 receptor activation (p53): 2.03 fold

Structure (SMILES): CN1CC2(NC(=S)N(CC34CC5CC(CC(C5)C3)C4)C2=O)C2(C1)C(=O)Nc1ccc(Cl)cc12 (centres unmarked) [92 (R = Cl, R’ = Me)]
IC50 (A549 (lung) [2]): 5 ± 0.6 µM
IC50 [3]: 2.8 ± 0.3 µM

Structure (SMILES): CN1CC2(NC(=S)N(CC34CC5CC(CC(C5)C3)C4)C2=O)C2(C1)C(=O)Nc1ccccc12 (centres unmarked) [92 (R = H, R’ = Me)]
p53 reporter activation (p53): 1.06 to 4.39 folds

Structure (SMILES): O=C1N(CCn2cc(CO)nn2)c2cc(Br)ccc2[C@]12[C@@H](c1ccccc1)C(c1ccccc1)=NN2c1ccccc1 [101 (X = (CH2)2)]
IC50 (MCF7 “wild p53”): 11.9 µM
IC50 (MDA-MB-231 “mutant p53”): 9.3 µM

Structure (SMILES): O=C(c1ccc(Br)cc1)[C@@H]1S[C@@]2(C(=O)Nc3cccc(Br)c32)[C@@H](c2ccccc2)C[C@@H]1O [146 (R^1/R^2/R^3 = 4-Br, 4-BrC6H4, Ph)]
% inhibition, A549 (A549 (lung) [4]): 86.9%
% inhibition, MCF7 (MCF7 (breast) [5]): 50.9%
% inhibition, HCT116 (HCT116 (colon)): 81.7%

IC50 (p53–MDM2): 0.004 µM
IC50 [6]: 0.471 µM
IC50 [7]: > 25 µM
Structure (SMILES): O=C(O)c1ccc([C@H]2C[C@H]3[C@@H](N2)[C@H](c2cccc(Cl)c2F)C2(C(=O)Nc4cc(Cl)ccc42)N3CC2CC2)cc1 (some centres unmarked) [compound 52, reference compound]

Structure (SMILES): O=C(O)c1ccc(N2CC3C(C2=O)C(c2cccc(Cl)c2F)C2(C(=O)Nc4cc(Cl)ccc42)N3CC2CC2)cc1 (centres unmarked) [compound 62]
IC50 (p53–MDM2): 0.004 µM
IC50 [6]: 0.161 µM
IC50 [7]: > 25 µM

Structure (SMILES): O=C(O)c1ccc(N2CCC3C(C2=O)C(c2cccc(Cl)c2F)C2(C(=O)Nc4cc(Cl)ccc42)N3CC2CC2)cc1 (centres unmarked) [compound 63]
IC50 (p53–MDM2): 0.004 µM
IC50 [6]: 0.547 µM
IC50 [7]: > 25 µM

Structure (SMILES): CC(=O)N1C(=O)[C@@]2(S[C@@H](C(=O)c3ccccc3)[C@@H](O)C[C@@H]2c2ccccc2)c2c(Br)cccc21 [compound 147]
% inhibition, A549 (A549 (lung) [4]): 70.3%
% inhibition, MCF7 (MCF7 (breast) [5]): 77.6%
% inhibition, HCT116 (HCT116 (colon)): 56.4%

IC50 (MDA-MB-231 (breast)): 5.82 ± 0.4 µM
IC50 (PC3 (prostate) [8]): 8.8 ± 0.3 µM
IC50 (HCT-116 (colon)): 13.1 ± 2.1 µM
IC50 (A549 (lung) [9]): 11.5 ± 0.8 µM
IC50 (MCF7 (breast) [10]): 59.4 µM
IC50 (HeLa (cervical) [11]): 65.3 µM
IC50 (PC3 (prostate) [12]): 1.9 ± 0.4 µM
Structure (SMILES): COc1cccc2c1C(=O)c1c(O)c3c(c(O)c1C2=O)C[C@@](O)(C(=O)CO)C[C@@H]3O[C@H]1C[C@H](N)[C@H](O)[C@H](C)O1 [doxorubicin, reference compound]

IC50 (PC-3 (p53−)): 28.1 to 29.6 µM
IC50 (HCT116 (p53^−/−) [13]): 47.8 ± 1.9 µM
GI50 (HCT116 (p53^−/−) [14]): 47.8 ± 1.9 µM
Structure (SMILES): COc1ccc(C2=N[C@@H](c3ccc(Cl)cc3)[C@@H](c3ccc(Cl)cc3)N2C(=O)N2CCNC(=O)C2)c(OC(C)C)c1 [nutlin-3a, reference compound]
IC50 (A549 (lung) [2]): 14.9 ± 0.6 µM
IC50 [3]: 10.4 ± 0.8 µM
p53 reporter activation (p53): 3.6 to 5.1 folds
p53 receptor activation (p53): 5.1 fold
